The source of these data is ChEMBL document CHEMBL4507319 (2021).

Test [1] has as its target PI3-kinase p110-alpha/p85-alpha (Homo sapiens) (UniProt P27986+P42336). Put plainly: PI3 Kinase(p110a/p85a)(h) Eurofins kinase panel. In kind it is protein-complex assay. Particulars: Compound concentration 1.0 uM.
The target in test [2] is Serine/threonine-protein kinase PAK 1 (Homo sapiens) (UniProt Q13153). Briefly: PAK1(h) Eurofins kinase panel. The following applies: Compound concentration 1.0 uM.
The target of test [3] is Insulin receptor (Homo sapiens) (UniProt P06213). Put plainly: IR(h) Eurofins kinase panel. Particulars: Compound concentration 1.0 uM.
Sequence of Insulin receptor (Homo sapiens) (P06213 28-758 limits assumed): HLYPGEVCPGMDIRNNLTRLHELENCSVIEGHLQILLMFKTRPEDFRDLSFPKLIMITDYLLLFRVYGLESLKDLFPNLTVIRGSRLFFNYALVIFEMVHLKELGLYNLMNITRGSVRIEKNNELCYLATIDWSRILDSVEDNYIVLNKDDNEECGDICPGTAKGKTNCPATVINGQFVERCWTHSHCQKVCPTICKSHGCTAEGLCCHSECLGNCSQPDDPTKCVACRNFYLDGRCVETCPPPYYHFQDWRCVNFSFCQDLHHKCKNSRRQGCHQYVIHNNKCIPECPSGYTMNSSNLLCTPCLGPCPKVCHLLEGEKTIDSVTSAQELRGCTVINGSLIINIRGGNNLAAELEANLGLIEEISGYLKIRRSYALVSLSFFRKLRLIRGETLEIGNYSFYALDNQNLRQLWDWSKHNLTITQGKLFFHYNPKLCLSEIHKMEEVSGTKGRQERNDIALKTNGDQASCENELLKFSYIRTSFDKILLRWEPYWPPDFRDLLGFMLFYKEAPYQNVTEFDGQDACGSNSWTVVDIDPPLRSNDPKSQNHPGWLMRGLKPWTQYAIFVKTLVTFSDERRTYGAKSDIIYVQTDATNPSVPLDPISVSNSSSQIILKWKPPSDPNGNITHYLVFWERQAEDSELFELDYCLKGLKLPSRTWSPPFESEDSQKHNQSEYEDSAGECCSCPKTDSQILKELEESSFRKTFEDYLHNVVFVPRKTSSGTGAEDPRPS
Sequence of Insulin receptor (Homo sapiens) (P06213 763-1382 limits assumed): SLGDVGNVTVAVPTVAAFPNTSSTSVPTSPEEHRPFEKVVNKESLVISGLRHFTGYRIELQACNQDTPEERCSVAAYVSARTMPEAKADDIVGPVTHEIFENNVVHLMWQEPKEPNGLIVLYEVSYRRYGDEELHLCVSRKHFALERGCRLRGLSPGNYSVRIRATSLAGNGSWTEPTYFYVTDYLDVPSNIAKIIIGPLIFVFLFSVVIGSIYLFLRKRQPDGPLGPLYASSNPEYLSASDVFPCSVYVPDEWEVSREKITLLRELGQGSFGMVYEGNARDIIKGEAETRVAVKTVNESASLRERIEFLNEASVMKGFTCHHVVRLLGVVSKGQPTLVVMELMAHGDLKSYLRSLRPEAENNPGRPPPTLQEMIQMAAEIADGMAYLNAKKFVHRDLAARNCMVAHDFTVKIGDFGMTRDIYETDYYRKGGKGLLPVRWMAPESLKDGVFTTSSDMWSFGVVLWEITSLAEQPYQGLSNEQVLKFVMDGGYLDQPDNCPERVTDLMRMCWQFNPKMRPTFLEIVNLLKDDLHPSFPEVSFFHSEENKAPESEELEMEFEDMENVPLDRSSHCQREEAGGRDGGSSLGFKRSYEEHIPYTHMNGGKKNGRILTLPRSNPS
In test [4] the target is T1, Serine/threonine-protein kinase ULK3 (Homo sapiens) (UniProt Q6PHR2).
T1 sequence (whole entry): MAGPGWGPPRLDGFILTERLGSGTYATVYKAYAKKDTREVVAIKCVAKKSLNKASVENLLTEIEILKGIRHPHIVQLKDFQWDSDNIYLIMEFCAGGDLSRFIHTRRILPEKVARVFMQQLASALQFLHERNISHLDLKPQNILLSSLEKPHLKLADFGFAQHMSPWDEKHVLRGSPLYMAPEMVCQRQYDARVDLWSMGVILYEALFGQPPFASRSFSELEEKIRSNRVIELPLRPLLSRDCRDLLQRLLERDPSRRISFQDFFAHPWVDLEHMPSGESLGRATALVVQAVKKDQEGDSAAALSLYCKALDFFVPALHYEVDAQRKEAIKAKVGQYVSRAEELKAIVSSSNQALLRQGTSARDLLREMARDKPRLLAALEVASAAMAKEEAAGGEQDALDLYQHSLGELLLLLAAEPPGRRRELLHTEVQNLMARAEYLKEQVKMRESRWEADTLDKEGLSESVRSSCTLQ
Briefly: ULK3(h) Eurofins kinase panel. The following applies: Compound concentration 1.0 uM.

The target of test [5] is Ribosomal protein S6 kinase alpha-5 (Homo sapiens, UniProt O75582). The following applies: Compound concentration 1.0 uM.
Sequence of Ribosomal protein S6 kinase alpha-5 (O75582 whole entry, looked up): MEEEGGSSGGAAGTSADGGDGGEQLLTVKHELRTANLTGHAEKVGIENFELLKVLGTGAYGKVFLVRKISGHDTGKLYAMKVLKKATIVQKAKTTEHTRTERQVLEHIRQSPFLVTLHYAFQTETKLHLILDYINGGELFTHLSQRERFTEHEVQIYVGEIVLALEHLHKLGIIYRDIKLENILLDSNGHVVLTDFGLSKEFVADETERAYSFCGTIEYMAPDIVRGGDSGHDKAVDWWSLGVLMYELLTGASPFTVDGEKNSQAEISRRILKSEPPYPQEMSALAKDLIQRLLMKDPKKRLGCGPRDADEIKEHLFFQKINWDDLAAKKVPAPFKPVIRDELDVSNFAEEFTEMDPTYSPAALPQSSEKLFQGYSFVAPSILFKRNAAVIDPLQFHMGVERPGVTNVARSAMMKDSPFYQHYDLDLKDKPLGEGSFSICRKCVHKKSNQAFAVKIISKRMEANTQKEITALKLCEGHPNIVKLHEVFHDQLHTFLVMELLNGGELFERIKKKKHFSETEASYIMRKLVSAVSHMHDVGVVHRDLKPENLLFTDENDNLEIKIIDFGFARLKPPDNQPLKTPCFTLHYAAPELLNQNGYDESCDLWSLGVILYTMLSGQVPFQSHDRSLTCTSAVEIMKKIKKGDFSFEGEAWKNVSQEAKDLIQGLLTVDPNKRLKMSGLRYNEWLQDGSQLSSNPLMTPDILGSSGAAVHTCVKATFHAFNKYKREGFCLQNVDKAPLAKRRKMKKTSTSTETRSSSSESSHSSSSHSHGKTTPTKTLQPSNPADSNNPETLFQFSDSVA
In test [6] the target is T2, Ephrin type-A receptor 1 (Homo sapiens) (UniProt P21709).
T2 sequence (whole entry): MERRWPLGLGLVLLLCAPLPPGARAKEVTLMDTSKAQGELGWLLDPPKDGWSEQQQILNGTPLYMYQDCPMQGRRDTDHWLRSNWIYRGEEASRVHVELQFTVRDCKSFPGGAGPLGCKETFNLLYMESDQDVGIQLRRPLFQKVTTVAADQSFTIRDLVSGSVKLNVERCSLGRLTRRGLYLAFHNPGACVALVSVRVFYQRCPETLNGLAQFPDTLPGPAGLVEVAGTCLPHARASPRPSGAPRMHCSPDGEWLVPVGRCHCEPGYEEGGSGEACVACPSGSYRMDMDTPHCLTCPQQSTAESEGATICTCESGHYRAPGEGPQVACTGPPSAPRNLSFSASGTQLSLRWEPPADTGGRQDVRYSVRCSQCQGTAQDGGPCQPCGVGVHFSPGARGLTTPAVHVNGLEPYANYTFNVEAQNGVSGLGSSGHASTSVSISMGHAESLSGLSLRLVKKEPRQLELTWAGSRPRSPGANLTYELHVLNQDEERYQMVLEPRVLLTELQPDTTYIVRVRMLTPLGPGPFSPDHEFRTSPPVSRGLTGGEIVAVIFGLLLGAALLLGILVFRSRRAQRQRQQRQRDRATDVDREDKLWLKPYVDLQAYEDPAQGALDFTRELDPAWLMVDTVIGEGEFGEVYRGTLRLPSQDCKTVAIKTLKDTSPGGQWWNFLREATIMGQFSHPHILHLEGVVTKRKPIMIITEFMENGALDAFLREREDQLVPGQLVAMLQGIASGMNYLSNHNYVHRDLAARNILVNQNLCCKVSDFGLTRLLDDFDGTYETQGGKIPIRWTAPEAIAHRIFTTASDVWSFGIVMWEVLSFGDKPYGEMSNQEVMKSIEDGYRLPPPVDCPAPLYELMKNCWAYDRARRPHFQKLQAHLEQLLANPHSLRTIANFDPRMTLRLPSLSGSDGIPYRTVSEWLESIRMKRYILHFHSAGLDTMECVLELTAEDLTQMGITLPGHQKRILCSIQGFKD
Briefly: EphA1(h) Eurofins kinase panel. Particulars: Compound concentration 1.0 uM.

The target in test [7] is Ribosomal protein S6 kinase alpha-6 (Homo sapiens) (UniProt Q9UK32). Put plainly: Rsk4(h) Eurofins kinase panel. Particulars: Compound concentration 1.0 uM.
Sequence of Ribosomal protein S6 kinase alpha-6 (Homo sapiens) (Q9UK32 whole entry): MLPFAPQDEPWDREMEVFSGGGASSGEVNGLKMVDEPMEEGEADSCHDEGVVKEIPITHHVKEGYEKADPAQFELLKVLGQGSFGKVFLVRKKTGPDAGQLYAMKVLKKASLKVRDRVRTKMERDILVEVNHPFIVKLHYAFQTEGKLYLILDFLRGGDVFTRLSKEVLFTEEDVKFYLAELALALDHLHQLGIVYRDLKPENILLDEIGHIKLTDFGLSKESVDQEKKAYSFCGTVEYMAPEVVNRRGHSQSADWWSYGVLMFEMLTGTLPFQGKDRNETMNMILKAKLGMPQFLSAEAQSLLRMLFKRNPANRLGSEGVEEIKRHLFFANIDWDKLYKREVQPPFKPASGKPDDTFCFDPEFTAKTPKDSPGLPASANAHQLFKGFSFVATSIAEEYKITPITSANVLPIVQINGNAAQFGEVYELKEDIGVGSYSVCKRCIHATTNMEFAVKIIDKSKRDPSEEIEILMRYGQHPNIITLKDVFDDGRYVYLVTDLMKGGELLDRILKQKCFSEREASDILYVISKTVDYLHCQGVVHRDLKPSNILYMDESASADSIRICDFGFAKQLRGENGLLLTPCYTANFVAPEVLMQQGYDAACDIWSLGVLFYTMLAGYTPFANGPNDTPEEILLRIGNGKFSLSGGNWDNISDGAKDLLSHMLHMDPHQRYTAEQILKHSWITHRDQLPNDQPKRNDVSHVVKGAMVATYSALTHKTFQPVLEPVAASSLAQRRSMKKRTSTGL
Test [8] has as its target Mast/stem cell growth factor receptor Kit (Homo sapiens) (UniProt P10721). Briefly: cKit(h) Eurofins kinase panel. Particulars: Compound concentration 1.0 uM.
In another test the test system is OPM-2. Briefly: OPM-2 cell line Proliferation assay. In kind it is functional, Homo sapiens. Particulars: time 3 day.
Test [9] has as its target T3, Muscle, skeletal receptor tyrosine-protein kinase (Homo sapiens) (UniProt O15146).
T3 sequence (whole entry): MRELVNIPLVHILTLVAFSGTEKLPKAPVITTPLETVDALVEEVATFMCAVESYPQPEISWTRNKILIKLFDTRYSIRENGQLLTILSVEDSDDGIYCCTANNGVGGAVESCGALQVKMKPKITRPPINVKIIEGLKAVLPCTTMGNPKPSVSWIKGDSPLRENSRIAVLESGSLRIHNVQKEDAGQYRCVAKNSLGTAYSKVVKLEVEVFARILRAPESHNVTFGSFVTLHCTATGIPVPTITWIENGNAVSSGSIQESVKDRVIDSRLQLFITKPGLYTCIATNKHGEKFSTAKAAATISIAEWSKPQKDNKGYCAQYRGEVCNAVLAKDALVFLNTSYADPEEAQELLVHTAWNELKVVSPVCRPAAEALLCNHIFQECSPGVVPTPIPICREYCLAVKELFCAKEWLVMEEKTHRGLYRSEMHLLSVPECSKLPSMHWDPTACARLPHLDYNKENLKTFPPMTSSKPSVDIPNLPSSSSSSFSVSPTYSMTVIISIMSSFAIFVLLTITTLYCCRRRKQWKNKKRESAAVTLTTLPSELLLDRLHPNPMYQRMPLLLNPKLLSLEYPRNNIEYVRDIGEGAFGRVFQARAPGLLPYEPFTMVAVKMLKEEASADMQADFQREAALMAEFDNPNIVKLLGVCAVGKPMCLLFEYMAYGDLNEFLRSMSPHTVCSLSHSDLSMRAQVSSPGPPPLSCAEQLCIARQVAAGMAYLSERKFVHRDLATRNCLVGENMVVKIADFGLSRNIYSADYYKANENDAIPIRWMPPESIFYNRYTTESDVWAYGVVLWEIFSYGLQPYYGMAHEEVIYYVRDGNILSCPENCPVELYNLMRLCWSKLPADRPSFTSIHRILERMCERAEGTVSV
Put plainly: MuSK(h) Eurofins kinase panel. Particulars: Compound concentration 1.0 uM.

In test [10] the target is MAP kinase-interacting serine/threonine-protein kinase 2 (Homo sapiens) (UniProt Q9HBH9). Briefly: Mnk2(h) Eurofins kinase panel. Particulars: Compound concentration 1.0 uM.
Sequence of MAP kinase-interacting serine/threonine-protein kinase 2 (Homo sapiens) (Q9HBH9 whole entry, looked up): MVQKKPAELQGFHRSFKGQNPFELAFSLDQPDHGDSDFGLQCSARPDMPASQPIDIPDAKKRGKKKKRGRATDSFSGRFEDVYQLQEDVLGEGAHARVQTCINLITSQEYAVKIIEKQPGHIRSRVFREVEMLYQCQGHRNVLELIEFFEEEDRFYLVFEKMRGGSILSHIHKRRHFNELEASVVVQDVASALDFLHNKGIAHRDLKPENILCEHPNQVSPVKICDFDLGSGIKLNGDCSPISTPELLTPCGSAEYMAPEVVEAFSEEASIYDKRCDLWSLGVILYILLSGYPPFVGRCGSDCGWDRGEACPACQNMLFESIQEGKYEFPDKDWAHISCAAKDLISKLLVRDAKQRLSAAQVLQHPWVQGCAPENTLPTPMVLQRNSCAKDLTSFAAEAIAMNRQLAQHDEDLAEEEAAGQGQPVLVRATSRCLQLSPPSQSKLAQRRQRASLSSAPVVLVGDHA

Sequence of Serine/threonine-protein kinase PAK 1 (Homo sapiens) (Q13153 whole entry): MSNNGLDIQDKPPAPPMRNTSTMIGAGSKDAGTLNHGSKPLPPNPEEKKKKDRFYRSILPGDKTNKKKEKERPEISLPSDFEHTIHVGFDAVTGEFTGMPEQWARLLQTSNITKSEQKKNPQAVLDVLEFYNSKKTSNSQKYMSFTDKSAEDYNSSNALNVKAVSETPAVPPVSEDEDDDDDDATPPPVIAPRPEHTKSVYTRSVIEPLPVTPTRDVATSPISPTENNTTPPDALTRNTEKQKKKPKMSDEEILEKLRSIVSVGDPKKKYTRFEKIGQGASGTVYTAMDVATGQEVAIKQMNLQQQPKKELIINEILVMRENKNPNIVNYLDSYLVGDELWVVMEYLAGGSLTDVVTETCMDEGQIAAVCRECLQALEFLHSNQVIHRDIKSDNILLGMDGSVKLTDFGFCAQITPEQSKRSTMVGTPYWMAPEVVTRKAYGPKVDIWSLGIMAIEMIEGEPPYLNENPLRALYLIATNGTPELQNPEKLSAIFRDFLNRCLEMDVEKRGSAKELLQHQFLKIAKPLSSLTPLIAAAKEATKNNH
Sequence of Mast/stem cell growth factor receptor Kit (Homo sapiens) (P10721 whole entry): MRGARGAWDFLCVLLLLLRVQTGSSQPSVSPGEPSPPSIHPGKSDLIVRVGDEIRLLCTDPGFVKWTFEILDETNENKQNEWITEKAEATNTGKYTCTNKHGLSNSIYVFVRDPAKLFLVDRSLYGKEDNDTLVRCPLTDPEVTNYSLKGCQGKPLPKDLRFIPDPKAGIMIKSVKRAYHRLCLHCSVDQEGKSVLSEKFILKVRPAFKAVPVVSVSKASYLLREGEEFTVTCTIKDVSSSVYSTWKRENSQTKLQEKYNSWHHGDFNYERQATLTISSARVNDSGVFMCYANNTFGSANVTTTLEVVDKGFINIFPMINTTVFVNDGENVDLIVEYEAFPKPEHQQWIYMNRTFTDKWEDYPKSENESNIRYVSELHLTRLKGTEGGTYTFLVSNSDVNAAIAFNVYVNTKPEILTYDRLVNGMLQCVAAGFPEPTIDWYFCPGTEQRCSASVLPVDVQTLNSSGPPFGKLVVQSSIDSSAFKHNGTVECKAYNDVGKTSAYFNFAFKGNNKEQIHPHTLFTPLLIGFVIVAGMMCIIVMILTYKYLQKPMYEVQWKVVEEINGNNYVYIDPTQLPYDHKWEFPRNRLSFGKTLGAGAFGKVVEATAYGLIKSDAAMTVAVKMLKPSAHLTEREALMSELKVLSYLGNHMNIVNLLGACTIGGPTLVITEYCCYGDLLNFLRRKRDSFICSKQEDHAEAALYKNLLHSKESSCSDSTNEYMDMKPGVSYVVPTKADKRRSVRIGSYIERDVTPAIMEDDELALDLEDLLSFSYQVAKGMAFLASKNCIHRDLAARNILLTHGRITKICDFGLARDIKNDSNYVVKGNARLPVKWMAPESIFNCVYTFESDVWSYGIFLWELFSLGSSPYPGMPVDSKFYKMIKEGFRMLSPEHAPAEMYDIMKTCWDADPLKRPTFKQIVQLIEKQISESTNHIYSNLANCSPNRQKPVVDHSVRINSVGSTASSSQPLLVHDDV

On to `CCc1ccccc1C(=O)Nc1n[nH]c2c(C)c(F)c(C3C(C#N)=C(C)N(C)C(C)=C3C#N)cc12` [BAY-3827], for which the % residual kinase activity is 99% in test [1]; 94% in test [2]; 115% in [3]; 59% in test [4]; 10% in test [5]; 98% in test [6]. The % residual kinase activity was 2% in test [7], 101% in [8], 91% in test [9] and 110% in test [10]. Besides, the “Cell Proliferation IC50” value in the test on OPM-2 came to 1.5 µM.
